Assay results: patent US12036236B2, “Antimicrobial guanidinium macromolecules with bacteria targeting moieties” (International Business Machines Corporation, priority 2018, dated 2024)

Experiments:
A. baumannii 4123 = test: Effective dose (ED50, ED95) in bacteremia infection mouse model; assay type: in vivo; conditions: Acinetobacter baumannii, 4123, ip; immunosuppressed mice, intraperitoneal 1.0 and 6.0 hours after infection, survival 7.0 days, BLISS method; read-out: ED50 (effective dose that cures 50% infected mice)
Protocol: In this regard, immunosuppressed mice were used for the following in vivo studies. Immunosuppression was induced by intraperitoneal injection of 200 mg/kg cyclophosphamide 4 days prior to infection. The mice were anesthetized by intraperitoneal injection of 1% pentobarbital (40 mg/kg, sigma). The mice were then infected with A. baumannii 4123 to determine the minimum lethal dose for subsequent effective dose and efficacy testing. Briefly, overnight cultures of A. baumannii 4123 were harvested and suspended in phosphate-buffered saline (PBS). Subsequently, the cyclophosphamide-pretreated mice were injected with 0.3 mL of the bacterial suspension at designated doses (e.g., 1.0×10^8, 2.5×10^8, 5×10^8, 1.0×10^9, 2.0×10^9 CFU/mL, six mice per group) via the tail vein. The minimum lethal dose, the lowest concentration sufficient to cause 100% mortality, was determined from the survival rate of mice at 48 hours post-infection by the BLISS method.
Firstly, a bacterial suspension with the minimum lethal dose (0.3 mL) was introduced to the above described cyclophosphamide-pretreated mice via the tail vein. […] The number of surviving mice in each group was recorded for 7.0 days to estimate ED50 and ED95 via the BLISS method.

[1] = test system: clinically isolated MDR K. pneumoniae, E. coli, A. baumannii and MRSA strains; test: MIC by broth microdilution against different types and strains of clinically isolated MDR bacteria; assay type: cell-based; conditions: MIC comparison
Protocol: To facilitate comparison, an antimicrobial guanidinium-based macromolecule without a sugar functional group (identified herein as Dp20), as well as strong antibiotics (including imipenem, vancomycin, ceftriaxone, and gentamycin), were also tested against the clinically isolated pathogens. The MDR clinical isolates were obtained from patients' blood and phlegm. All isolates were identified by routine laboratory methods and stored in 20% (v/v) glycerol at 80° C.
In accordance with the broth microdilution method, MDR microbes including one or more strains of K. pneumoniae, E. coli, A. baumannii, and MRSA were harvested in midexponential growth phase after grown overnight in Mueller-Hinton (MH) agar plates at 37° C. The antimicrobial agents were prepared in Mueller Hinton broth (MHB) at various concentrations. The bacteria suspensions were then diluted with phosphate-buffer saline (PBS), with a potential of Hydrogen (PH) of 7.4) to adjust the turbidity approximately to the Standard McFarland 0.6, which corresponds to the concentration of 1×10^8 colony-forming unit (CFU) per mL (CFU/mL, after which the bacteria suspension was further diluted by 100-fold with MHB (1×10^6 CFU/mL). Subsequently, equal volumes (100 μL) of bacterial suspension and agent solution prepared previously were mixed in each well of a 96-well plate and incubated for 18 hours at 37° C. […]

C[C@@H](O)[C@H]1C(=O)N2C(C(=O)O)=C(SCCN=CN)C[C@H]12 [imipenem]
ED50 (A. baumannii 4123): 6.1 mg/kg

CN[C@H](CC(C)C)C(=O)N[C@H]1C(=O)N[C@@H](CC(N)=O)C(=O)N[C@H]2C(=O)N[C@H]3C(=O)N[C@H](C(=O)N[C@H](C(=O)O)c4cc(O)cc(O)c4-c4cc3ccc4O)[C@H](O)c3ccc(c(Cl)c3)Oc3cc2cc(c3O[C@@H]2O[C@H](CO)[C@@H](O)[C@H](O)[C@H]2O[C@H]2C[C@](C)(N)[C@H](O)[C@H](C)O2)Oc2ccc(cc2Cl)[C@H]1O [vancomycin]
spectrum of efficacy (Gram-negative / Gram-positive strains) [1]: only demonstrated efficacy Gram-positive strains
